Data published in patent US20190365626A1, “HIGHLY EFFECTIVE PHOTOPROTECTIVE AGENTS” (3V Sigma S.P.A., priority 2018, published 2019).

Experiments:
[1] = specific extinction E^11 (1% solution, 1 cm optical path); type: physicochemical; details: at 328 nm; solution containing 1% of the product, optical path of 1 cm
Excerpt: The efficacy of UV absorbers is characterised by the parameter E^11 (or E11), which corresponds to the extinction value measured at the maximum absorption wavelength of a solution containing 1% of the product in question, measured with an optical path of 1 cm. Such extinction is called “specific extinction”.

[2] = Solubility Test in emollients (cosmetic solvents); type: physicochemical
Protocol: The solubility of the sunscreens obtained in example 2 and (comparative) example 3 were evaluated in various emollients commonly used in suncare and daily skincare products: C12-15 alkyl benzoate, dibutyl adipate, caprylic/capric triglyceride and ethylhexyl salicylate.

[3] = in Caprylic/Capric Triglyceride

Row | Compound | E^11 extinction [1] | solubility ([2]; in C12-15 Alkyl Benzoate) | solubility [2, 3] | solubility ([2]; in Dibutyl Adipate) | solubility ([2]; in Ethylhexyl Salicylate)
1 | CCCCC(CC)COC(=O)c1ccc(Nc2nc(Nc3ccc(-c4nc5cc(C(C)(C)CC)ccc5o4)cc3)nc(Nc3ccc(-c4nc5cc(C(C)(C)CC)ccc5o4)cc3)n2)cc1 (stereo not shown) [Example 2] | 1431 | 15% w/w % | 15% w/w % | 20% w/w % | 25% w/w %
2 | CCCCC(CC)COC(=O)c1ccc(Nc2nc(Nc3ccc(-c4nc5cc(C(C)(C)C)ccc5o4)cc3)nc(Nc3ccc(-c4nc5cc(C(C)(C)C)ccc5o4)cc3)n2)cc1 (stereo not shown) [Example 3] | 1395 | 5% w/w % | <5% w/w % | 5% w/w % | 10% w/w %
